Read-outs that look alike come from different tables or passages of the source.
Experiments:
JAK2/JAK2 signaling = test: Cytokine-stimulated cell-based assay, GM-CSF-induced p-STAT5; conditions: western blotting
JAK1/JAK2 = test: Cytokine-stimulated cell-based assay, IFN-γ-induced p-STAT1 in U2OS cells; conditions: Homo sapiens
Ba/F3-JAK2^WT = test: MTT assay for cell proliferation; format: cell-based, Murine; conditions: Mus musculus, 72 h, read-out: IC50(μM) ± SD, tumor cell proliferation
Description: (§2) For in vitro inhibition assays, cells were seeded in 96-well culture plates with a density of 15,000–20,000 cells/well after the cells reached 70–90% confluence. […] MTT (3-(4, 5-dimethylthiazol-2-yl)-2, 5-diphenyltetrazolium bromide) (Cat. No. 1334GR001; BioFroxx) assay was conducted in order to examine viability. The IC50 values were fitted using GraphPad Prism 7.0.

Ba/F3-EPOR = test: MTT assay for cell proliferation; format: cell-based, Murine; conditions: Mus musculus, 72 h, read-out: IC50(μM) ± SD, tumor cell proliferation
Description: as §2

Ba/F3-JAK2^V617F = test: MTT assay for cell proliferation; format: cell-based, Murine; conditions: Mus musculus, 72 h, read-out: IC50(μM) ± SD, tumor cell proliferation
Description: as §2

Molm-13 = test: MTT assay for cell proliferation; format: cell-based; conditions: Homo sapiens, MOLM-13, 72 h, read-out: IC50(μM) ± SD, tumor cell proliferation
Description: as §2

Ba/F3-FLT3-ITD^F691 = test: MTT assay for cell proliferation; format: cell-based, Murine; conditions: Mus musculus, 72 h, read-out: IC50(μM) ± SD, tumor cell proliferation
Description: as §2

Ba/F3-FLT3-ITD^D835V = test: MTT assay for cell proliferation; format: cell-based, Murine; conditions: Mus musculus, 72 h, read-out: IC50(μM) ± SD, tumor cell proliferation
Description: as §2

[1] = test system: FLT3 mutant tumor cell lines; test: MTT assay for cell proliferation, summary of panel; format: cell-based; conditions: summary of Table S7
Description: (§1) For in vitro inhibition assays, cells were seeded in 96-well culture plates with a density of 15,000–20,000 cells/well after the cells reached 70–90% confluence. After overnight incubation, the cells received a supplement of serial concentrations of FM and underwent 72 h incubation at 37 °C under 5% CO2. MTT (3-(4, 5-dimethylthiazol-2-yl)-2, 5-diphenyltetrazolium bromide) (Cat. No. 1334GR001; BioFroxx) assay was conducted in order to examine viability. The IC50 values were fitted using GraphPad Prism 7.0.

[2] = test system: JAK2^V617F mutant cell lines; test: MTT assay for cell proliferation, summary of panel; format: cell-based; conditions: summary of Table S7; read-out: anti-proliferative IC50 on JAK2^V617F mutant cell lines
Description: as §1

JAK2^V617F = JAK2^V617F bone marrow transplantation (BMT) myelofibrosis model; format: in vivo, BALB/c mice; conditions: for inhibition of splenomegaly: figure prints it with a minus sign over Spleen Wight (mg); for median survival time: vehicle 133.5 days; for BM Reticulin, fibrosis grade: bone marrow, WHO grading, vehicle MF-2
[3] = PK and tissue distribution after single oral administration in Ba/F3-EPOR-JAK2^V617F tumor-bearing mice; format: in vivo; conditions: for Kp: spleen and plasma, po
[4] = test system: Ba/F3-EPOR-JAK2^V617F cells; test: PD study after repeated administration in Ba/F3-EPOR-JAK2^V617F tumor-bearing mice; format: in vivo
Description: For Ba/F3-EPOR-JAK2^V617F driven malignant model after repeated administration, tumor-bearing mice were randomly divided into 8 groups on the 10th day. Mice were sacrificed at 0, 0.25, 0.5, 1, 4, 8, 12, and 24 hours after the last oral administration, and tissue samples were harvested to determine the distribution of FM and PK parameters by UFLC-MS/MS. For PD studies, we weighed the spleen, and analyzed the ratio of GFP^+ in the spleen and PB by flow cytometry, and test the downstream pathway protein p-STAT5 (Y694, Cat. No. Ab32364) via Western Blot.
With the decrease of drug concentration, the level of p-STAT5 increased to a certain extent, but 12 hours after administration, the level of p-STAT5 still decreased (Fig. 5C). […] 71 ± 7. 91%, respectively. In addition, the weight of spleen was 267.2 ± 56.8 mg in the untreated group and 167.5 ± 52.9 mg in the repeated administration groups (12 hours after the last administration) (Fig. 5D and Fig. S4E).

Bioavailability = conditions: dog, in vivo; dogs; data not shown
[5] = BALB/c nude, mouse, brain, oral, 30 mg/kg, single, read-out: FM concentration, Brain
[6] = BALB/c nude, mouse, heart, oral, 30 mg/kg, single, read-out: FM concentration, Heart
[7] = BALB/c nude, mouse, intestine, oral, 30 mg/kg, single, read-out: FM concentration, Intestine
[8] = BALB/c nude, mouse, kidney, oral, 30 mg/kg, single, read-out: FM concentration, Kidney
[9] = BALB/c nude, mouse, liver, oral, 30 mg/kg, single, read-out: FM concentration, Liver
[10] = BALB/c nude, mouse, lung, oral, 30 mg/kg, single, read-out: FM concentration, Lung
[11] = BALB/c nude, mouse, muscle, oral, 30 mg/kg, single, read-out: FM concentration, Muscle
[12] = BALB/c nude, mouse, plasma, oral, 30 mg/kg, single, read-out: FM concentration, Plasma
[13] = BALB/c nude, mouse, spleen, oral, 30 mg/kg, single, read-out: FM concentration, Spleen
[14] = BALB/c nude, mouse, stomach, oral, 30 mg/kg, single, read-out: FM concentration, Stomach
[15] = BALB/c nude, mouse, Plasma, single oral 30 mg/kg
[16] = BALB/c nude, mouse, spleen, single oral 30 mg/kg
[17] = before the last administration, 30 mg/kg repeated

Cc1cnc(Nc2ccc(N3CCC(N(C)CCO)CC3)c(F)c2)nc1-c1cnn(C(C)C)c1 [FM, 2-((1-(2-fluoro-4-((4-(1-isopropyl-1H-pyrazol-4-yl)-5-methylpyrimidin-2-yl)amino)phenyl)piperidin-4-yl)(methyl)amino)ethan-1-ol] showed an IC50 (JAK2/JAK2 signaling) of 120 nM, an IC50 (JAK1/JAK2) of 390 nM and an IC50 (Ba/F3-JAK2^WT) of 0.39 ± 0.2 µM. It also gave an IC50 (Ba/F3-EPOR) of 0.55 ± 0.13 µM, an IC50 (Ba/F3-JAK2^V617F) of 0.2 ± 0.01 µM and an IC50 (Molm-13) of 0.06 ± 0.03 µM. The IC50 (Ba/F3-FLT3-ITD^F691) was 0.15 ± 0.02 µM, the IC50 (Ba/F3-FLT3-ITD^D835V) was 0.1 ± 0.06 µM and the IC50 [1] was < 100 nM. For the same compound, the IC50 [2] was < 500 nM, the inhibition of splenomegaly (JAK2^V617F; 15 mg/kg bid p.o.) was 97.11% and the median survival time (JAK2^V617F; 15 mg/kg bid p.o.) was > 180 days. The inhibition of splenomegaly (JAK2^V617F; 30 mg/kg bid p.o.) was 101.62%, the median survival time (JAK2^V617F; 30 mg/kg bid p.o.) was > 180 days and the inhibition of splenomegaly (JAK2^V617F; 45 mg/kg bid p.o.) was 101.24%. For the same compound, the median survival time (JAK2^V617F; 45 mg/kg bid p.o.) was > 180 days, the “BM Reticulin, fibrosis grade” value (JAK2^V617F; 30 mg/kg) was “non-MF” and the “BM Reticulin, fibrosis grade” value (JAK2^V617F; 45 mg/kg) was “non-MF”. The “drug concentration in the spleen” value ([3]; 8 h after single oral 30 mg/kg, by calculation) was 2416 ± 1657 nmol/kg, the concentration at 0.5 h [3, 5] was 354 ± 77.1 ng/g and the concentration at 2 h [3, 5] was 309 ± 40.5 ng/g. For the same compound, the concentration at 4 h [3, 5] was 157 ± 58.3 ng/g, the concentration at 8 h ([3]; BALB/c nude, mouse, brain, oral, 30 mg/kg, single, 8 h, read-out: FM concentration, Brain) was 38.4 ± 28.5 ng/g and the concentration at 0.5 h [3, 6] was 3390 ± 184 ng/g. It also gave a concentration at 2 h [3, 6] of 1650 ± 381 ng/g, a concentration at 4 h [3, 6] of 864 ± 418 ng/g and a concentration at 8 h ([3]; BALB/c nude, mouse, heart, oral, 30 mg/kg, single, 8 h, read-out: FM concentration, Heart) of 199 ± 145 ng/g. For the same compound, the concentration at 0.5 h [3, 7] was 14900 ± 11400 ng/g, the concentration at 2 h [3, 7] was 6250 ± 3230 ng/g and the concentration at 4 h [3, 7] was 8490 ± 2240 ng/g. It also gave a concentration at 8 h ([3]; BALB/c nude, mouse, intestine, oral, 30 mg/kg, single, 8 h, read-out: FM concentration, Intestine) of 4360 ± 4050 ng/g, a concentration at 0.5 h [3, 8] of 12100 ± 1260 ng/g and a concentration at 2 h [3, 8] of 6220 ± 855 ng/g. For the same compound, the concentration at 4 h [3, 8] was 2410 ± 1010 ng/g, the concentration at 8 h ([3]; BALB/c nude, mouse, kidney, oral, 30 mg/kg, single, 8 h, read-out: FM concentration, Kidney) was 1050 ± 767 ng/g and the concentration at 0.5 h [3, 9] was 12800 ± 3700 ng/g. For the same compound, the concentration at 2 h [3, 9] was 6530 ± 2920 ng/g, the concentration at 4 h [3, 9] was 3820 ± 1480 ng/g and the concentration at 8 h ([3]; BALB/c nude, mouse, liver, oral, 30 mg/kg, single, 8 h, read-out: FM concentration, Liver) was 845 ± 662 ng/g. For the same compound, the concentration at 0.5 h [3, 10] was 11600 ± 2960 ng/g, the concentration at 2 h [3, 10] was 3820 ± 739 ng/g and the concentration at 8 h ([3]; BALB/c nude, mouse, lung, oral, 30 mg/kg, single, 8 h, read-out: FM concentration, Lung) was 603 ± 481 ng/g. For the same compound, the concentration at 0.5 h [3, 11] was 633 ± 619 ng/g, the concentration at 2 h [3, 11] was 217 ± 116 ng/g and the concentration at 4 h [3, 11] was 152 ± 73.9 ng/g. It also gave a concentration at 8 h ([3]; BALB/c nude, mouse, muscle, oral, 30 mg/kg, single, 8 h, read-out: FM concentration, Muscle) of 43.1 ± 42 ng/g, a concentration at 0.25 h [3, 12] of 653 ± 108 ng/mL and a concentration at 0.5 h [3, 12] of 857 ± 74.5 ng/mL. The concentration at 1 h [3, 12] was 922 ± 302 ng/mL, the concentration at 2 h [3, 12] was 458 ± 88.2 ng/mL and the concentration at 4 h [3, 12] was 248 ± 80.8 ng/mL. For the same compound, the concentration at 8 h ([3]; BALB/c nude, mouse, plasma, oral, 30 mg/kg, single, 8 h, read-out: FM concentration, Plasma) was 59.9 ± 50 ng/mL, the concentration at 12 h ([3]; BALB/c nude, mouse, plasma, oral, 30 mg/kg, single, 12 h, read-out: FM concentration, Plasma) was 61.4 ± 64.3 ng/mL and the Kp ([3]; BALB/c nude, mouse, 30 mg/kg, AUC(0-24h) of spleen higher than that of plasma, single oral 30 mg/kg) was 15.3. The Kp ([3]; BALB/c nude, mouse, 30 mg/kg, single oral 30 mg/kg, read-out: Cmax of spleen higher than that of plasma) was 11.7, the concentration at 0.25 h [3, 13] was 5630 ± 710 ng/g and the concentration at 0.5 h [3, 13] was 10400 ± 2660 ng/g. It also gave a concentration at 1 h [3, 13] of 9930 ± 3970 ng/g, a concentration at 2 h [3, 13] of 8530 ± 1510 ng/g and a concentration at 4 h [3, 13] of 3810 ± 1880 ng/g. For the same compound, the concentration at 8 h ([3]; BALB/c nude, mouse, spleen, oral, 30 mg/kg, single, 8 h, read-out: FM concentration, Spleen) was 1410 ± 968 ng/g, the concentration at 12 h ([3]; BALB/c nude, mouse, spleen, oral, 30 mg/kg, single, 12 h, read-out: FM concentration, Spleen) was 358 ± 228 ng/g and the concentration at 24 h ([3]; BALB/c nude, mouse, spleen, oral, 30 mg/kg, single, 24 h, read-out: FM concentration, Spleen) was 32.6 ± 13.3 ng/g. For the same compound, the concentration at 8 h ([3]; BALB/c nude, mouse, spleen, 8 h after single oral 30 mg/kg, converted, read-out: drug concentration in the spleen) was ~2420 nM, the concentration at 12 h ([3]; BALB/c nude, mouse, spleen, 12 h after single oral 30 mg/kg, converted, read-out: concentration of FM in spleen) was ~614 nM and the concentration at 0.5 h [3, 14] was 30300 ± 18400 ng/g. The concentration at 2 h [3, 14] was 30500 ± 29000 ng/g, the concentration at 4 h [3, 14] was 17700 ± 10900 ng/g and the concentration at 8 h ([3]; BALB/c nude, mouse, stomach, oral, 30 mg/kg, single, 8 h, read-out: FM concentration, Stomach) was 6840 ± 10500 ng/g. The AUC(0-t) [3, 15] was 2990 ± 558 ng·h/mL, the Cmax [3, 15] was 1030 ± 174 ng/mL and the half-life [3, 15] was 2.31 ± 0.79 h. It also gave a Cmax [3, 16] of 12000 ± 3470 ng/g, a half-life [3, 16] of 2.71 ± 0.51 h and a Cl ([3]; Plasma, single oral 30 mg/kg) of 168.7 ± 36.2 mL/min/kg. For the same compound, the Vdss ([3]; Plasma, single oral 30 mg/kg) was 32.84 ± 10.12 L/kg, the “GFP^+ tumor cells in PB” value ([4]; 12 hours after the 17th administration, 30 mg/kg) was 11.77 ± 5.5% and the “GFP^+ tumor cells in PB” value [4, 17] was 19.75 ± 12.93%. For the same compound, the “GFP^+ tumor cells in spleen” value [4, 17] was 17.12 ± 8.15%, the weight of spleen ([4]; repeated administration, 12 hours after the last administration, untreated 267.2 ± 56.8 mg) was 167.5 ± 52.9 mg and the “p-STAT5 level down-regulated by” value ([4]; spleen, 8 hours after administration, 30 mg/kg repeated) was 43.80 ± 1.59%. The bioavailability (Bioavailability) was ~60%.

Reference: publication PMC8901636, “Preclinical studies of Flonoltinib Maleate, a novel JAK2/FLT3 inhibitor, in treatment of JAK2^V617F-induced myeloproliferative neoplasms” (Blood Cancer Journal, 2022)
